US20260258330A1, “USE OF AT LEAST ONE […] A BEVERAGE, IN […] ALCOHOLIC BEVERAGE, AS A […] […]” (priority 2023, published 2026)
Where two headings read alike, the source gives them in different places.

What was measured:
Saccharomyces cerevisiae [1] = format: cell-based
Procedure: For this example, 10 mL of apple juice, grape juice or multifruit juice was inoculated with a strain of Saccharomyces cerevisiae at 60,000 cells per mL, that is a deposit of 17 μL of inoculum per 10 ml tube for Ci at T0=[…].
These inoculated juices were incubated statically at 20° C., under subdued light, after having been pre-treated as follows: • 1. Untreated (Negative control) • 2. […] Ethanol 2.37% • 4. Ethanol 4.74% • 5. 100 ppm Chitosan • 6. 9 ppm Amphidinol 18 (AM18) • 7. 18 ppm Amphidinol 18 (AM18) • 8. 36 ppm Amphidinol 18 (AM18)
The amphidinol concentration is obtained using the product according to the invention obtained from Example 1. The amount of product according to the invention is adjusted to obtain the desired amphidinol concentrations.
The biomass of Saccharomyces populations was measured by optical density reading at 600 nm.

[2] = Degradability of amphidinol 18 in light at room temperature, HPLC (Example 4); format: physicochemical; settings: product at one gram per liter in 70% ethanol
Excerpt: Regularly, the concentration of amphidinol 18 in the product according to the invention has been measured by high-performance liquid chromatography.

[3] = test system: three strains of Brettanomyces bruxellensis; assay: Growth of three Brettanomyces bruxellensis strains with product or inactivated product, optical density at 550 nm (Example 4); format: cell-based; settings: conclusion from degradation and growth tests of Example 4
Procedure: Two replicas were made for each condition.
Yeast growth is measured by reading the optical density at 550 nanometers.

[4] = test system: Brettanomyces bruxellensis NL6300; assay: Minimum inhibitory concentration of peak 0 purified fraction, OD550 (Example 6); format: cell-based; settings: all concentrations (40 to 5 ppm) except the 5 ppm concentration of AM18
Procedure: The minimum inhibitory concentration of peak 0 (purified fraction) was determined for two strains of Brettanomyces bruxellensis (NL6293 and NL6300) according to the protocol described in Example 2 and FIG. 1B.
OD550 nm at T=0 days, T=3 days and T=6 days was measured after incubation of yeasts at 28° C. in the presence of YPD medium alone (negative control), methanol or in the presence of peak 0 at dilutions ranging from 1:32 to 1:256 corresponding to concentrations of 40 to 5 ppm of amphidinol 18. The product according to the invention at 0.25 g/L was also tested (positive control). Two replicas were produced.

Saccharomyces cerevisiae [5] = assay: Minimum inhibitory concentration of peak 0 purified fraction, OD550 (Example 7); format: cell-based; settings: 40 and 20 ppm of AM18 (tested 40 to 5 ppm); 2.5·10^4 CFU/mL
Procedure: The minimum inhibitory concentration (MIC) of peak 0 described in FIG. 5D was determined for Saccharomyces cerevisiae according to the protocol described in Example 2 and FIG. 1B.
(§1) OD550 nm at 0, 3 and 6 days (T0, T3 and T6) was measured after incubation at 28° C. of yeasts at 2.5·10^4 CFU/mL in the presence of YPD medium alone (negative control), methanol (MEtOH) or in the presence of peak 0 at a dilution of 1:32 to 1:256 corresponding to concentrations of 40 to 5 ppm of amphidinol 18. The product according to the invention at 0.25 g/L was also tested under the same conditions. Two replicas (rep1 and rep2) were produced.

Acetobacter aceti = assay: Minimum inhibitory concentration of peak 0 purified fraction, OD550 (Example 8); format: cell-based; settings: 40, 20 and 10 pp: of AM18 (tested 40 to 5 ppm); MRS medium, 10^5 CFU/mL
Procedure: The minimum inhibitory concentration (MIC) of peak 0 described in FIG. 5D was determined for Acetobacter aceti according to the protocol described in Example 2 and FIG. 1B.
as §1, with “10^5” for “2.5·10^4”, “MRS” for “YPD”, “carried out.” for “produced.”

[6] = Degradation kinetics of amphidinol 18 in wine, HPLC (Example 10); format: physicochemical; settings: product doses containing 60 ppm to 480 ppm amphidinol 18; up to day 44
Procedure: Different doses of the product according to the invention, containing from 60 ppm to 480 ppm of amphidinol 18, were inoculated in the wine. The amount of amphidinol 18 was determined by HPLC assay over time, up to day 44 (T44). The percentage of amphidinol 18 with respect to the initial dose was assessed over time.

Structure (SMILES): CCO [Ethanol, reference compound]
- yeast population growth (Saccharomyces cerevisiae [1]): no yeast population growth

Structure (SMILES): C=C/C=C/CC/C=C/C=C/C=C/CC/C=C/[C@H](O)[C@H](O)[C@@H]1O[C@@H]([C@H](O)[C@H](O)C(=C)CC[C@@H](O)[C@H]2C[C@@H](O)[C@@H](O)[C@H]([C@@H](O)[C@H](O)/C=C(\C)CCC(O)CC(O)C(O)C(C)CC(O)C(O)CC(C)CCC(O)CC(=O)CC(O)CCCC(O)CCCCC(O)CO)O2)C[C@@H](O)[C@H]1O (stereo partly drawn) [amphidinol 18]
- amphidinol 18 concentration of the product ([2]; T=0 days): 24 mg/L
- amphidinol 18 concentration of the product ([2]; T=120 days): ~0 mg/L
- effectiveness for controlling and/or limiting the growth of Brettanomyces bruxellensis [3]: particularly effective
- effectiveness against strain NL6300 [4]: effective
- effectiveness against Saccharomyces cerevisiae (Saccharomyces cerevisiae [5]): effective
- effectiveness against Acetobacter aceti (Acetobacter aceti): effective
- degradation of amphidinol 18 in wine [6]: degrades steadily
- growth of Saccharomyces populations (Saccharomyces cerevisiae [1]; 3 types of fruit juice): completely preventing the growth
- Average D0, optical density at 600 nm (Saccharomyces cerevisiae [1]; Apple juice, 9 ppm AM18): −0.1305
- Average D1, optical density at 600 nm (Saccharomyces cerevisiae [1]; Apple juice, 9 ppm AM18): −0.1655
- Average D2, optical density at 600 nm (Saccharomyces cerevisiae [1]; Apple juice, 9 ppm AM18): 0.1385
- Average D3, optical density at 600 nm (Saccharomyces cerevisiae [1]; Apple juice, 9 ppm AM18): 0.6495
- Average D0, optical density at 600 nm (Saccharomyces cerevisiae [1]; Apple juice, 18 ppm AM18): 0.0835
- Average D1, optical density at 600 nm (Saccharomyces cerevisiae [1]; Apple juice, 18 ppm AM18): 0.0055
- Average D2, optical density at 600 nm (Saccharomyces cerevisiae [1]; Apple juice, 18 ppm AM18): −0.0505
- Average D3, optical density at 600 nm (Saccharomyces cerevisiae [1]; Apple juice, 18 ppm AM18): −0.091
- Average D0, optical density at 600 nm (Saccharomyces cerevisiae [1]; Apple juice, 36 ppm AM18): −0.012
- Average D1, optical density at 600 nm (Saccharomyces cerevisiae [1]; Apple juice, 36 ppm AM18): −0.007
- Average D2, optical density at 600 nm (Saccharomyces cerevisiae [1]; Apple juice, 36 ppm AM18): −0.062
- Average D3, optical density at 600 nm (Saccharomyces cerevisiae [1]; Apple juice, 36 ppm AM18): 0.3515
- Average D0, optical density at 600 nm (Saccharomyces cerevisiae [1]; Grape juice, 9 ppm AM18): 0.0755
- Average D1, optical density at 600 nm (Saccharomyces cerevisiae [1]; Grape juice, 9 ppm AM18): 0.0375
- Average D2, optical density at 600 nm (Saccharomyces cerevisiae [1]; Grape juice, 9 ppm AM18): 0.0315
- Average D3, optical density at 600 nm (Saccharomyces cerevisiae [1]; Grape juice, 9 ppm AM18): −0.084
- Average D0, optical density at 600 nm (Saccharomyces cerevisiae [1]; Grape juice, 18 ppm AM18): 0.2065
- Average D1, optical density at 600 nm (Saccharomyces cerevisiae [1]; Grape juice, 18 ppm AM18): 0.175
- Average D2, optical density at 600 nm (Saccharomyces cerevisiae [1]; Grape juice, 18 ppm AM18): 0.154
- Average D3, optical density at 600 nm (Saccharomyces cerevisiae [1]; Grape juice, 18 ppm AM18): 0.0515
- Average D0, optical density at 600 nm (Saccharomyces cerevisiae [1]; Grape juice, 36 ppm AM18): −0.1485
- Average D1, optical density at 600 nm (Saccharomyces cerevisiae [1]; Grape juice, 36 ppm AM18): −0.174
- Average D2, optical density at 600 nm (Saccharomyces cerevisiae [1]; Grape juice, 36 ppm AM18): −0.2285
- Average D3, optical density at 600 nm (Saccharomyces cerevisiae [1]; Grape juice, 36 ppm AM18): −0.2465
- Average D0, optical density at 600 nm (Saccharomyces cerevisiae [1]; Multifruit juice, 9 ppm AM18): −0.006
- Average D1, optical density at 600 nm (Saccharomyces cerevisiae [1]; Multifruit juice, 9 ppm AM18): −0.028
- Average D2, optical density at 600 nm (Saccharomyces cerevisiae [1]; Multifruit juice, 9 ppm AM18): −0.0705
- Average D3, optical density at 600 nm (Saccharomyces cerevisiae [1]; Multifruit juice, 9 ppm AM18): 0.0995
- Average D0, optical density at 600 nm (Saccharomyces cerevisiae [1]; Multifruit juice, 18 ppm AM18): 0.002
- Average D1, optical density at 600 nm (Saccharomyces cerevisiae [1]; Multifruit juice, 18 ppm AM18): −0.0365
- Average D2, optical density at 600 nm (Saccharomyces cerevisiae [1]; Multifruit juice, 18 ppm AM18): −0.0155
- Average D3, optical density at 600 nm (Saccharomyces cerevisiae [1]; Multifruit juice, 18 ppm AM18): 0.033
- Average D0, optical density at 600 nm (Saccharomyces cerevisiae [1]; Multifruit juice, 36 ppm AM18): −0.009
- Average D1, optical density at 600 nm (Saccharomyces cerevisiae [1]; Multifruit juice, 36 ppm AM18): 0.034
- Average D2, optical density at 600 nm (Saccharomyces cerevisiae [1]; Multifruit juice, 36 ppm AM18): 0.008
- Average D3, optical density at 600 nm (Saccharomyces cerevisiae [1]; Multifruit juice, 36 ppm AM18): 0.018
